Test system: 18S and BRD4 transcripts in MOLM13 cells
Assay: Cellular RNA degradation reactions (acCLICK-Seq), RT-qPCR
Format: cell-based, human
Description: MOLM13 cells were suspended RPMI-1640 media (Gibco) supplemented with 10% v/v FBS and 1% v/v penicillin/streptomycin/L-glutamine at a density of 1,000,000 cells mL^-1. The cells were incubated for 30 min at 37° C. followed by addition of ethyl-3-butynoate at a final concentration of 200 μM. Treated cells were incubated for further 24 h at 37° C. […] Levels of specific RNAs were measured using fast mode of QuantStudio 3 Real-Time PCR System (Applied Biosystems) and PowerUpTM SYBR Green Master Mix (Applied Biosystems) according to the manufacturer's instructions. In the qPCR analysis RNA levels were normalised to the 5S gene ([…]) or the GAPDH gene (glycoCLICK-seq). These housekeeping gene was chosen as their levels fluctuated the least under various conditions tested.

C#CCC(=O)OCC [ethyl-3-butynoate, Ethyl-3-butynoate]
relative expression levels of 18S and BRD4 transcripts, clicked versus non-clicked control cells (WT MOLM13, ethyl-3-butynoate 200 μM 24 h, then click-degrader 1 400 μM CuAAC): reduction | expression levels of 18S and BRD4 transcripts in clicked cells (cells with NAT10 knocked-out): rescued

Reference: patent US20230272460A1, “Method for Targeted Nucleic Acid Cleavage” (Cambridge Enterprise Limited, priority 2020, published 2023)
